PMC6158578, “Optimization and Lead Selection of Benzothiazole Amide Analogs Toward a Novel Antimycobacterial Agent” (Frontiers in Microbiology, 2018)
≈ marks a conversion by molar mass, not a printed value.

Experiments:
[1] = system: M. abscessus (n = 20) clinical isolates; experiment: MIC against rapid-growing NTM clinical isolates; format: cell-based
[2] = system: M. abscessus; parameters: method as in Graham et al., 2018; conditions: SAR of CRS400153 analogs; ref Graham et al., 2018; cited from earlier work
[3] = system: M. chelonae (n = 11) clinical isolates; experiment: MIC against rapid-growing NTM clinical isolates; format: cell-based
[4] = system: M. intracellulare 1956; experiment: MIC, Middlebrook medium (7H9 + OADC, 7 days); format: cell-based; conditions: Mycobacterium intracellulare, 1956, 168 h
[5] = system: M. abscessus massiliense 119; experiment: MIC, broth microdilution with resazurin (MHB, 3 days); format: cell-based; conditions: Mycobacteroides abscessus
[6] = system: Mtb intact cells and inverted membrane vesicles; format: cell-based, M. tuberculosis
[7] = system: M. fortuitum (n = 11) clinical isolates; experiment: MIC against rapid-growing NTM clinical isolates; format: cell-based
[8] = system: S. pyogenes ATCC 19615; experiment: MIC, spectrum of activity; format: cell-based; conditions: Streptococcus pyogenes, ATCC19615
[9] = system: Other NTM (n = 12); experiment: MIC against rapid-growing NTM clinical isolates; format: cell-based
[10] = system: mycolic acid transfer in Mabs ATCC19977; experiment: Metabolic labeling with [14C]acetate; format: cell-based, M. abscessus; conditions: 2x and 10x MIC
[11] = system: E. coli tolC CGSC 5633 (efflux mutant strain); experiment: microbe, parasite or virus in culture; format: cell-based; conditions: Escherichia coli
[12] = 50% complement-inactivated human serum
[13] = system: S. pneumoniae ATCC 49619; experiment: MIC, spectrum of activity; format: cell-based; conditions: Streptococcus pneumoniae, ATCC49619
[14] = system: M. tuberculosis H37Rv mc^2 6206; experiment: microbe, parasite or virus in culture; format: cell-based; conditions: Mycobacterium tuberculosis, 168 h
[15] = system: P. aeruginosa ATCC 35151; experiment: MIC, spectrum of activity; format: cell-based; conditions: Pseudomonas aeruginosa, ATCC35151
[16] = physchem; format: physicochemical; conditions: pH 7.4, aqueous buffer, thermodynamic from solid
Description: ADMET assays were performed through NIAID Preclinical Services and Eurofins. Potential for cytotoxicity was monitored in HepG2 cells after 72 h growth in the presence of test compounds, either prepared as 10-point 3-fold serial dilutions or at a fixed 10 μM concentration. Cell viability was measured using the CellTiter-Glo® Luminescent Cell Viability Assay (Promega) or via fluorescent image analysis. Cytotoxicity was expressed as IC50 or as percent reduction of viable cells relative to a reference compound. Metabolic stability of compounds was evaluated via incubation with human liver microsomes at 37°C and quantitative analysis of parent compound by LC-MS/MS in samples removed at 0, 5, 15, 30, and 45 min (Obach, [1999]). For cytochrome P450 (CYP) inhibition assays, compounds were prepared as a 7-point dilution series and incubated with human liver microsomes in buffer containing 2 mM NADPH and probe substrate. […] Thermodynamic solubility of compounds in aqueous media was determined by incubation in 50 mM potassium phosphate buffer (pH 7.4) for 24 h, followed by HPLC-UV detection of compound in the filtrate (Analiza, Cleveland, OH, United States).

[17] = system: S. aureus ATCC 29213; experiment: MIC, spectrum of activity; format: cell-based; conditions: Staphylococcus aureus, ATCC29213
[18] = system: E. coli ATCC 25922 + PMBN (permeabilized); experiment: MIC, spectrum of activity; format: cell-based; conditions: Escherichia coli, ATCC25922
[19] = system: M. fortuitum 41; experiment: MIC, broth microdilution with resazurin (MHB, 3 days); format: cell-based; conditions: Mycolicibacterium fortuitum, 41
[20] = system: M. abscessus ATCC 19977; experiment: as above; format: cell-based; conditions: Mycobacteroides abscessus, ATCC19977
[21] = system: M. avium 101; experiment: MIC, Middlebrook medium (7H9 + OADC, 7 days); format: cell-based; conditions: Mycobacterium avium, 101, 168 h
[22] = system: M. chelonae 93; experiment: MIC, broth microdilution with resazurin (MHB, 3 days); format: cell-based; conditions: Mycobacteroides chelonae, 93
[23] = system: M. peregrinum ATCC 700686; experiment: as above; format: cell-based; conditions: Mycolicibacterium peregrinum, ATCC700686
[24] = system: E. faecalis ATCC 29212; experiment: MIC, spectrum of activity; format: cell-based; conditions: Enterococcus faecalis, ATCC29212

CC1CC(C(=O)Nc2nc3c(F)cc(F)cc3s2)CC(C)(C)C1 (stereo not shown) [CRS400153]
MIC range ([1]; M. abscessus (n = 20)): 0.5 to 2 µg/mL
MIC90 ([1]; Mycobacteroides abscessus): 1 µg/mL (≈ 2.95 µM)
MIC against M. abscessus [2]: 0.5 µg/mL (≈ 1.48 µM)
MIC range ([3]; M. chelonae (n = 11)): 0.5 to 1 µg/mL
MIC90 ([3]; Mycobacteroides chelonae): 1 µg/mL (≈ 2.95 µM)
MIC [4]: 8 µg/mL
MIC [5]: 0.5 µg/mL (≈ 1.48 µM)
effect on membrane potential and electrochemical pH gradient [6]: no effect
MIC range ([7]; M. fortuitum (n = 11)): 0.5–0.5 μg/mL
MIC90 ([7]; Mycolicibacterium fortuitum): 0.5 µg/mL (≈ 1.48 µM)
MIC [8]: > 64 µg/mL
MIC90 [9]: 1 µg/mL (≈ 2.95 µM)
MIC range ([9]; Other NTM (n = 12)): 0.25 to 1 µg/mL
effect on mycolic acid transfer to arabinogalactan and trehalose dimycolates [10]: concentration-dependent inhibition of mycolic acid transfer
MIC [11]: > 64 µg/mL
Protein (serum) binding [12]: >95%
MIC [13]: 8 µg/mL (≈ 23.6 µM)
MIC [14]: 1 µg/mL (≈ 2.95 µM)
MIC [15]: > 64 µg/mL
solubility at 24 h [16]: 3 µM (≈ 1.02 µg/mL)
MIC [17]: > 64 µg/mL
MIC [18]: > 64 µg/mL
MIC [19]: 0.25 µg/mL (≈ 0.739 µM)
MIC [20]: 0.5 µg/mL (≈ 1.48 µM)
MIC [21]: 16 µg/mL
MIC [22]: 0.25 µg/mL (≈ 0.739 µM)
MIC [23]: 0.12 µg/mL (≈ 0.355 µM)
MIC [24]: > 64 µg/mL
